PMC3842960, “Natural Stilbenoids Isolated from Grapevine Exhibiting Inhibitory Effects against HIV-1 Integrase and Eukaryote MOS1 Transposase In Vitro Activities” (PLoS ONE, 2013)

Assays:
Mos1 transposase (MOS1) = target: T1, Mos1 transposase (MOS1) (Drosophila mauritiana, UniProt Q7JQ07); assay: MOS1 in vitro ITR integration assay; type: biochemical, D. mauritiana; details: for inhibition of the integration step: 25 and 10 µM, molecules added after formation of MOS1-ITR complexes
T1 construct: involving the full-length Mos1 transposase (MOS1) was recently solved; made in house
T1 sequence (Q7JQ07 whole entry): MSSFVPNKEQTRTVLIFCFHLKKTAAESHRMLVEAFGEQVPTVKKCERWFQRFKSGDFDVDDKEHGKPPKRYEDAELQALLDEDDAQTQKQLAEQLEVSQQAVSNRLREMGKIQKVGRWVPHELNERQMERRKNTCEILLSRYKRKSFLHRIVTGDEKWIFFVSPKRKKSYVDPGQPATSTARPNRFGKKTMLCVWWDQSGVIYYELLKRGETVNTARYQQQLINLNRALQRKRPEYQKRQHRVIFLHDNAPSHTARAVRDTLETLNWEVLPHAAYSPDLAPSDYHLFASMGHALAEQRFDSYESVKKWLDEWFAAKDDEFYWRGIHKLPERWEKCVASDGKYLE
Method: These assays were performed using pre-cleaved 3′ITRs (PC-ITR), i.e. ITRs in the configuration expected after excision. […]. Prior to annealing, the transferred strand (70-TS-PC) was 5′-end labelled using T4 polynucleotide kinase (Promega) and γ-^32P-ATP following the manufacturer's instructions. Oligonucleotides were provided by Eurofins MWG Biotech (Germany) or Eurogentec (Belgium). Reaction mixtures containing 10 mM Tris-HCl (pH 9), 50 mM NaCl, 1 mM DTT, 5% glycerol, 100 ng BSA, 100 nM of labelled PC-ITR and 100 nM MBP-MOS1 in a final volume of 20 µl were incubated at 30°C for 30 min. The pBC plasmid (which contained the cat gene, a hot-spot for Mos1 insertion) was then added to 30 ng/µL along with 5 mM MgCl2. Molecules (25 or 10 µM, as specified) or DMSO (2%) were added to the reaction mixtures along with the target DNA to estimate their effect on integration. Reactions were carried out for 3 hours at 30°C. 0.1 mg/ml proteinase K and 0.1% SDS were added to stop the reaction. DNA products were purified by phenol-chloroform extraction and ethanol precipitated using standard techniques. DNA products were resuspended in DNA loading buffer, then separated onto a 1% agarose gel in 1X TAE (Tris Acetate EDTA) buffer. The gel was dried onto a nitrocellulose membrane (Hybond N+, GE Healthcare), scanned using a Storm, and analysed with ImageQuant software. Signals were quantified using ImageQuant software. Efficiency of integration was calculated as the intensity of the integration signal divided by the intensity of free target signal plus integration signal. Each condition was tested at least twice.
The assay used for this step is similar to the HIV-1 IN concerted integration. Briefly, pre-cleaved labelled ITRs are used to form the integration complex. A super-coiled plasmid is used as target DNA. Integration events give a linear labelled plasmid, which can be detected. In these tests, the molecules are added after formation of MOS1-ITR complexes, along with a target plasmid to solely examine the integration inhibition. […] Controls correspond to assays performed without molecule but with DMSO. Reactions were performed at least twice for each selected molecule (leachianol G, leachianol F, quadrangularin A, hopeaphenol, vitisin B and pallidol) and the excision activity is shown in figure 8B .

MOS1 = target: T2, MOS1 (Drosophila mauritiana, UniProt Q7JQ07); assay: MOS1 in vitro activities, overall statements of the discussion; type: biochemical, D. mauritiana; details: for activity on MOS1: in vitro assays of MOS1 activities, discussion
T2 construct: involving the full-length Mos1 transposase (MOS1) was recently solved; made in house
T2 sequence (Q7JQ07 whole entry): as above
Method: In vitro transposition reactions were performed using pBC-3T3 as both the donor DNA and the target, as previously described. Briefly, the basic transposition reaction mixtures contained 10 mM Tris-HCl (pH 9), 50 mM NaCl, 20 mM MgCl2, 0.5 mM EDTA, 5% glycerol, 5 ng/ml BSA, 600 ng pBC-3T3, and 80 nM purified MBP-MOS1 (added last) in a volume of 20 µl. Inhibitors (25 or 10 µM, as specified) or DMSO (2%) were added to the reaction mixtures before the transposase. The reactions were allowed to proceed for 30 min at 30°C. After phenol-chloroform extraction and ethanol precipitation, 10% of the reaction mixture was transformed in electro-competent JM109 E. coli (2 mm cuvette, 1.5 kV in a MicroPulser™BioRad). Appropriate dilutions of each reaction mixture were plated on LB-tetracycline (12.5 µg/ml) agar and LB-chloramphenicol (80 µg/ml) agar to score the transposition rate. The transposition rate was the number of Tet^R colonies divided by the number of Chloram^R plus Tet^R colonies. Each condition was done at least three times in independent experiments.
Basic excision reaction mixtures contained 10 mM Tris-HCl (pH 9), 50 mM NaCl, 20 mM MgCl2, 0.5 mM EDTA, 0.5 mM DTT, 100 ng BSA, 600 ng of super-coiled pBC-3T3, and 80 nM MBP-MOS1 (added last) in a volume of 20 µl. Molecules (25 or 10 µM, as specified) or DMSO (2%) were added to the reaction mixtures before the transposase. The reactions were allowed to proceed at 30°C for 30 min before 2 µl of stop solution (loading buffer) were added. The reaction mixtures were then incubated at 65°C for 10 min. Each reaction was analysed by overnight electrophoresis at 2.7 V/cm on a TAE-buffered 1% agarose gel with ethidium bromide (0.3 mg/ml). After electrophoresis, the gel was photographed on a transilluminator. ImageGauge 4.22 software (Fujifilm) was used to quantify the bands. Each condition was tested at least twice.
These assays were performed using pre-cleaved 3′ITRs (PC-ITR), i.e. ITRs in the configuration expected after excision. Double-strand ITRs were obtained by annealing equimolar amounts of 70-NTS-PN (5′[…]3′) and 70-TS-PC (5′[…]3′) single-strand oligonucleotides. Prior to annealing, the transferred strand (70-TS-PC) was 5′-end labelled using T4 polynucleotide kinase (Promega) and γ-^32P-ATP following the manufacturer's instructions. Oligonucleotides were provided by Eurofins MWG Biotech (Germany) or Eurogentec (Belgium). Reaction mixtures containing 10 mM Tris-HCl (pH 9), 50 mM NaCl, 1 mM DTT, 5% glycerol, 100 ng BSA, 100 nM of labelled PC-ITR and 100 nM MBP-MOS1 in a final volume of 20 µl were incubated at 30°C for 30 min. The pBC plasmid (which contained the cat gene, a hot-spot for Mos1 insertion) was then added to 30 ng/µL along with 5 mM MgCl2. Molecules (25 or 10 µM, as specified) or DMSO (2%) were added to the reaction mixtures along with the target DNA to estimate their effect on integration. Reactions were carried out for 3 hours at 30°C. 0.1 mg/ml proteinase K and 0.1% SDS were added to stop the reaction. DNA products were purified by phenol-chloroform extraction and ethanol precipitated using standard techniques. DNA products were resuspended in DNA loading buffer, then separated onto a 1% agarose gel in 1X TAE (Tris Acetate EDTA) buffer. The gel was dried onto a nitrocellulose membrane (Hybond N+, GE Healthcare), scanned using a Storm, and analysed with ImageQuant software. Signals were quantified using ImageQuant software. Efficiency of integration was calculated as the intensity of the integration signal divided by the intensity of free target signal plus integration signal. Each condition was tested at least twice.
All molecules were also tested in in vitro assays reproducing integration and excision reactions catalysed by MOS1. […] In contrast, E-resveratrol and E-ε-viniferin glucoside, which act more specifically on HIV-1 3′processing reaction, and E-piceid and E-pterostilbene, which is more efficient on the integration reaction, were not active on MOS1.

HIV-1 IN = HIV-1 IN (Human immunodeficiency virus type 1 group M subtype B, UniProt P04585); assay: HIV-1 IN in vitro concerted integration assay (processed or unprocessed donor DNA)

| Structure (SMILES) | IC50 (Mos1 transposase (MOS1)) | inhibition of the integration step (Mos1 transposase (MOS1)) | activity on MOS1 (MOS1) | IC50 (MOS1; summary of the discussion) | inhibition at 10 µM (HIV-1 IN; read-out: inhibition of concerted integration) | inhibition of concerted integration from processed and unprocessed donor (HIV-1 IN; increasing concentrations) |
| --- | --- | --- | --- | --- | --- | --- |
| Oc1ccc([C@@H]2c3c(O)cc(O)cc3[C@H]3c4c(cc(O)cc4C2C2c4cc(O)cc5c4[C@H](c4cc(O)cc(O)c4[C@H]2c2ccc(O)cc2)[C@@H](c2ccc(O)cc2)O5)O[C@@H]3c2ccc(O)cc2)cc1 (stereo partly drawn) [hopeaphenol] | ~6.5 µM | significantly inhibited | selectively active on MOS1 | 6 to 8 µM | < 5% | – |
| Oc1ccc([C@@H]2c3c(O)cc(O)cc3[C@H]3[C@H](c4ccc(O)cc4)c4c(O)cc(O)cc4[C@@H]23)cc1 [pallidol] | ~10 µM | significantly inhibited | also active against MOS1 activities | – | – | inhibited both activities |
